The values that follow come from PubChem BioAssay AID328 (DTP/NCI, 2004).

The assay concerns BDF1 mice, P388 leukemia ip, median survival T/C. Briefly: NCI In Vivo Anticancer Drug Screen. Data for tumor model P388 Leukemia (intraperitoneal) in B6D2F1 (BDF1) mice. Particulars: endpoint: median survival time, higher = longer survival. The gist of the method:
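Each value expresses how treatment altered survival: treated-mouse outcome over vehicle-mouse outcome, both groups bearing the transplanted tumour.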

The mark [1] stands for this setting: dose: 100.0 mg/kg/injection, schedule: Q01DX001 (ip), vehicle: Klucel (hydroxypropylcellulose) (HPC).
The mark [2] stands for this setting: dose: 100.0 mg/kg/injection, schedule: Q04DX003 (ip), vehicle: Klucel (hydroxypropylcellulose) (HPC).
The mark [3] stands for this setting: dose: 200.0 mg/kg/injection, schedule: Q01DX001 (ip), vehicle: Klucel (hydroxypropylcellulose) (HPC).
[4] abbreviates: dose: 400.0 mg/kg/injection, schedule: Q01DX001 (ip), vehicle: Klucel (hydroxypropylcellulose) (HPC).
Where [5] appears, read: dose: 200.0 mg/kg/injection, schedule: Q04DX003 (ip), vehicle: Klucel (hydroxypropylcellulose) (HPC).
Setting [6] is: dose: 400.0 mg/kg/injection, schedule: Q04DX003 (ip), vehicle: Klucel (hydroxypropylcellulose) (HPC).
Setting [7] is: dose: 25.0 mg/kg/injection, schedule: Q01DX009 (ip), vehicle: saline with Tween-80.
Where [8] appears, read: dose: 50.0 mg/kg/injection, schedule: Q01DX009 (ip), vehicle: saline with Tween-80.
Setting [9] is: dose: 100.0 mg/kg/injection, schedule: Q01DX009 (ip), vehicle: saline with Tween-80.
The mark [10] stands for this setting: dose: 6.25 mg/kg/injection, schedule: Q01DX009 (ip), vehicle: saline with Tween-80.
Setting [11] is: dose: 200.0 mg/kg/injection, schedule: Q01DX009 (ip), vehicle: saline with Tween-80.
The mark [12] stands for this setting: dose: 100.0 mg/kg/injection, schedule: Q01DX009 (ip), vehicle: Klucel (hydroxypropylcellulose) (HPC).
Where [13] appears, read: dose: 200.0 mg/kg/injection, schedule: Q01DX009 (ip), vehicle: Klucel (hydroxypropylcellulose) (HPC).

Values joined by “and” are separate entries in the source; they are usually repeats but may differ in a detail not shown here. Equal entries are not always repeated. Toxic doses and inconclusive results are not listed.

In the case of `CN(C)C(=S)SC(=S)N(C)C`, the T/C is, setting by setting: (dose: 25.0 mg/kg/injection, schedule: Q04DX003 (ip), vehicle: Klucel (hydroxypropylcellulose) (HPC)) 100 % of control; (dose: 50.0 mg/kg/injection, schedule: Q04DX003 (ip), vehicle: Klucel (hydroxypropylcellulose) (HPC)) 95 % of control; under setting [1], 100 % of control and 104 % of control; under setting [2], 109 % of control; under setting [3], 100 % of control; under setting [4], 104 % of control and 108 % of control.

In the case of `NC(=S)N/N=C/c1c[nH]c2ccccc12`, the T/C by setting is: under setting [2], 100 % of control; under setting [5], 113 % of control; under setting [6], 104 % of control.

For the molecule `[NH-]C(CCC(N)=O)C(=O)O.[NH-]C(CCCN=C(N)N)C(=O)O.[Zn+2]` (centres undefined), the T/C was 104 % of control (dose: 50.0 mg/kg/injection, schedule: Q01DX005 (ip), vehicle: saline) and 120 % of control (dose: 100.0 mg/kg/injection, schedule: Q01DX005 (ip), vehicle: saline).

With `CC(/C=N/NC(N)=S)Cc1ccc(C(C)C)cc1` (centres undefined), the T/C is 110 % of control (dose: 7.0 mg/kg/injection, schedule: Q01DX009 (ip), vehicle: saline with Tween-80); 100 % of control (dose: 7.0 mg/kg/injection, schedule: Q04DX003 (ip), vehicle: saline with Tween-80); 115 % of control (dose: 14.0 mg/kg/injection, schedule: Q01DX009 (ip), vehicle: saline with Tween-80); 104 % of control (dose: 14.0 mg/kg/injection, schedule: Q04DX003 (ip), vehicle: saline with Tween-80); 95 % of control (dose: 28.0 mg/kg/injection, schedule: Q04DX003 (ip), vehicle: saline with Tween-80).

Take `CNC(=N)c1ccc(NC(=N)c2ccc(NC(=N)c3ccc(NC(=O)Nc4ccc(C(=N)Nc5ccc(C(=N)Nc6ccc(C(=N)NC)cc6)cc5)cc4)cc3)cc2)cc1`: the T/C is, setting by setting: (dose: 12.5 mg/kg/injection, schedule: Q04DX003 (ip), vehicle: saline with Tween-80) 150 % of control; (dose: 19.0 mg/kg/injection, schedule: Q04DX003 (ip), vehicle: saline with Tween-80) 162 % of control and 186 % of control; under setting [7], 165 % of control and 180 % of control; (dose: 25.0 mg/kg/injection, schedule: Q04DX003 (ip), vehicle: saline with Tween-80) 163 % of control; (dose: 29.0 mg/kg/injection, schedule: Q04DX003 (ip), vehicle: saline with Tween-80) 272 % of control and 172 % of control; (dose: 44.0 mg/kg/injection, schedule: Q04DX003 (ip), vehicle: saline with Tween-80) 231 % of control and 195 % of control. For the same molecule, the T/C was 230 % of control under setting [8]; 200 % of control (dose: 66.0 mg/kg/injection, schedule: Q04DX003 (ip), vehicle: saline with Tween-80); 229 % of control and 195 % of control (dose: 67.0 mg/kg/injection, schedule: Q04DX003 (ip), vehicle: saline with Tween-80); 92 % of control under setting [9]; 250 % of control and 222 % of control (dose: 100.0 mg/kg/injection, schedule: Q04DX003 (ip), vehicle: saline with Tween-80).

For the molecule `C#CCOc1ccccc1/C(Cl)=N/Nc1ccc([N+](=O)[O-])cc1[N+](=O)[O-]`, the T/C by setting is: (dose: 1.56 mg/kg/injection, schedule: Q01DX009 (ip), vehicle: saline with Tween-80) 106 % of control; (dose: 3.12 mg/kg/injection, schedule: Q01DX009 (ip), vehicle: saline with Tween-80) 97 % of control; under setting [10], 100 % of control.

Consider `C/C(=C\c1ccccc1)C(C)(C)C(=O)O`, for which the T/C by setting is: under setting [8], 102 % of control; under setting [9], 96 % of control; under setting [11], 99 % of control.

As to `c1ccc2cc(Nc3ccc(Nc4ccc5ccccc5c4)cc3)ccc2c1`, the T/C runs as follows: under setting [1], 100 % of control; under setting [3], 91 % of control; under setting [4], 95 % of control.

As for `COc1ccc(CNc2cc(C(O)CNC(C)(C)C)ccc2O)cc1` (centres undefined), the T/C reads like this: under setting [10], 105 % of control; (dose: 12.5 mg/kg/injection, schedule: Q01DX009 (ip), vehicle: saline with Tween-80) 102 % of control; under setting [7], 114 % of control.

`COc1cccc(/C=N\NC(=O)C(C)SC(C)C(=O)N/N=C/c2cccc(OC)c2)c1` (centres undefined): the T/C under setting [9] is 100 % of control; the T/C under setting [11] was 104 % of control; the T/C (dose: 400.0 mg/kg/injection, schedule: Q01DX009 (ip), vehicle: saline with Tween-80) was 104 % of control.

On to `CN(C)P(=O)(N(C)C)N(C)CC[N+](C)(C)C`, for which the T/C by setting is: (dose: 50.0 mg/kg/injection, schedule: Q01DX009 (ip), vehicle: saline) 103 % of control; (dose: 100.0 mg/kg/injection, schedule: Q01DX009 (ip), vehicle: saline) 101 % of control; (dose: 200.0 mg/kg/injection, schedule: Q01DX009 (ip), vehicle: saline) 100 % of control.

As to `C#CCn1cnc2c(Cl)ncnc21`, the T/C (dose: 50.0 mg/kg/injection, schedule: Q01DX009 (ip), vehicle: other) is 118 % of control; the T/C (dose: 100.0 mg/kg/injection, schedule: Q01DX009 (ip), vehicle: other) was 100 % of control; the T/C (dose: 100.0 mg/kg/injection, schedule: Q04DX003 (ip), vehicle: saline) is 108 % of control; the T/C (dose: 200.0 mg/kg/injection, schedule: Q04DX003 (ip), vehicle: saline) is 104 % of control; the T/C (dose: 400.0 mg/kg/injection, schedule: Q04DX003 (ip), vehicle: saline) was 95 % of control.

On to `Cc1n(Cc2ccccc2)c2c([n+]1C)C(=O)c1ccccc1C2=O`, for which the T/C runs as follows: (dose: 0.5 mg/kg/injection, schedule: Q01DX010 (ip), vehicle: saline) 100 % of control; (dose: 1.0 mg/kg/injection, schedule: Q01DX010 (ip), vehicle: saline) 109 % of control; (dose: 2.0 mg/kg/injection, schedule: Q01DX010 (ip), vehicle: saline) 113 % of control; (dose: 125.0 micrograms/kg/injection, schedule: Q01DX009 (ip), vehicle: Klucel (hydroxypropylcellulose) (HPC)) 105 % of control; (dose: 250.0 micrograms/kg/injection, schedule: Q01DX009 (ip), vehicle: Klucel (hydroxypropylcellulose) (HPC)) 100 % of control; (dose: 500.0 micrograms/kg/injection, schedule: Q01DX009 (ip), vehicle: Klucel (hydroxypropylcellulose) (HPC)) 110 % of control. Further, the T/C runs as follows: (dose: 1000.0 micrograms/kg/injection, schedule: Q01DX009 (ip), vehicle: Klucel (hydroxypropylcellulose) (HPC)) 115 % of control; (dose: 2000.0 micrograms/kg/injection, schedule: Q01DX009 (ip), vehicle: Klucel (hydroxypropylcellulose) (HPC)) 120 % of control.

For `OCCCNc1cccc2ccccc12`, the T/C was 105 % of control under setting [12]; 100 % of control under setting [2]; 100 % of control under setting [13]; 100 % of control under setting [5]; 110 % of control (dose: 400.0 mg/kg/injection, schedule: Q01DX009 (ip), vehicle: Klucel (hydroxypropylcellulose) (HPC)); 100 % of control under setting [6].

Consider `CCOC(=O)/C(=C\c1ccccc1)O/C(=C/c1ccccc1)C(=O)OCC`, for which the T/C (dose: 100.0 mg/kg/injection, schedule: Q04DX002 (ip), vehicle: saline with Tween-80) is 89 % of control and the T/C (dose: 400.0 mg/kg/injection, schedule: Q04DX002 (ip), vehicle: saline with Tween-80) was 93 % of control.

As for `O=C(NN(c1ccc([N+](=O)[O-])cc1)c1ccc([N+](=O)[O-])cc1)c1ccccc1`, the T/C (dose: 50.0 mg/kg/injection, schedule: Q01DX009 (ip), vehicle: Klucel (hydroxypropylcellulose) (HPC)) was 100 % of control; the T/C under setting [12] is 105 % of control; the T/C under setting [13] is 105 % of control.
